# According to patent publication US6693137B1, “Sulphonamide derivatives” (Eli Lilly and Company, priority 1998, dated 2004):
# Tested on: not given
# Assay: not given
row,Structure (SMILES),melting point [°C]
1,CCOCC(=O)Nc1ccc(C(C)CNS(=O)(=O)C(C)C)cc1 (stereo not drawn),113 to 116
2,CC(CNS(=O)(=O)C(C)C)c1ccc(NC(=O)CN(C)C)cc1.O=C(O)/C=C\C(=O)O (stereo not drawn),120 to 122

# Now from value to molecule:
row,melting point [°C],Structure (SMILES)
1,139 to 141,CC(CNS(=O)(=O)C(C)C)c1ccc(NC(=O)CN2CCCCC2)cc1 (stereo not drawn)
2,172 to 173,CC(CNS(=O)(=O)C(C)C)c1ccc(-c2ccc(OCCN3CCCC3)cc2)cc1.Cl (stereo not drawn)
3,176 to 178,CC(CNS(=O)(=O)C(C)C)c1ccc(NC(=O)COc2ccccn2)cc1 (stereo not drawn)

# Target: T1, human GluR4B receptor (Homo sapiens, UniProt P48058)
# T1 construct: expressed in transfected cells
# Assay: potentiation of agonist-induced excitability of human GluR4B receptor expressed in HEK 293 cells
# Type: cell-based
# Description: The ability of compounds of formula I to potentiate glutamate receptor-mediated response may be determined using fluorescent calcium indicator dyes (Molecular Probes, Eugene, Oreg., Fluo-3) and by measuring glutamate-evoked efflux of calcium into GluR^4 transfected HEK293 cells, as described in more detail below.
# In one test, 96 well plates containing confluent monolayers of HEK cells stably expressing human GluR4B (obtained as described in European Patent Application Publication Number EP-A1-583917) are prepared. The tissue culture medium in the wells is then discarded, and the wells are each washed once with 200 μl of buffer (glucose, 10 mM, sodium chloride, 138 mM, magnesium chloride, 1 mM, potassium chloride, 5 mM, calcium chloride, 5 mM, N-[2-hydroxyethyl]piperazine-N-[2-ethanesulfonic acid], 10 mM, to pH 7.1 to 7.3). […]
# Each test is then performed as follows. […] A second fluorescent reading is taken after 5 minutes incubation. 15 μl of 400 μM glutamate solution is then added to each well (final glutamate concentration 100 μM), and a third reading is taken. The activities of test compounds and cyclothiazide solutions are determined by subtracting the second from the third reading (fluorescence due to addition of glutamate in the presence or absence of test compound or cyclothiazide) and are expressed relative to enhance fluorescence produced by 100 μM cyclothiazide.
# T1 sequence (P48058 21-902): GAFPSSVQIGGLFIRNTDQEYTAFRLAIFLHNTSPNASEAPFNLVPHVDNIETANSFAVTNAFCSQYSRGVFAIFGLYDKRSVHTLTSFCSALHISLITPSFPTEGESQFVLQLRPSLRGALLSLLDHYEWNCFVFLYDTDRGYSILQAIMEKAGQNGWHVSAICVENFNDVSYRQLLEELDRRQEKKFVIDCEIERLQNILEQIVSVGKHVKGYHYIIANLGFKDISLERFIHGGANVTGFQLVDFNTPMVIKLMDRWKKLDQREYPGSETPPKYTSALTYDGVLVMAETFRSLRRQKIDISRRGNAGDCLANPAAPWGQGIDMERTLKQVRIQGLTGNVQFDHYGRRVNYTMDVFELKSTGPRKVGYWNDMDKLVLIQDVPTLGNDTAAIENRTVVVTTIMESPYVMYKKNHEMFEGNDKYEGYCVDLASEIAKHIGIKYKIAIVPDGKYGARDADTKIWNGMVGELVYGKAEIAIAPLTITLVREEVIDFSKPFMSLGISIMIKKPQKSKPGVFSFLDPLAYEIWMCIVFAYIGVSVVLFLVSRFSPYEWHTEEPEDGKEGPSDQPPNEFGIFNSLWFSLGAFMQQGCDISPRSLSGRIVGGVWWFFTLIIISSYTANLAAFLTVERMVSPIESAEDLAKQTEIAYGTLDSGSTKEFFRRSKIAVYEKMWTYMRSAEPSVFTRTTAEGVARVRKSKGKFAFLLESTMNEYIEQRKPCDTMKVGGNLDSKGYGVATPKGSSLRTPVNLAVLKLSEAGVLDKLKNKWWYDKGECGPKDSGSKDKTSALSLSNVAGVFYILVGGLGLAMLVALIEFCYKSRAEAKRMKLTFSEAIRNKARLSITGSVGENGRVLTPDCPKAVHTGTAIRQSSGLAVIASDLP
row,Structure (SMILES),potentiation of agonist-induced excitability
1,NS(=O)(=O)c1cc2c(cc1Cl)NC(C1CC3C=CC1C3)NS2(=O)=O (stereo not drawn) [cyclothiazide],potentiate agonist-induced excitability
